Results taken from publication PMC3684613 (PLoS ONE, 2013).
Like-named read-outs stand apart in the source and are kept apart here.

Legend:
P. falciparum 3D7 [1] = system: P. falciparum 3D7; set-up: method as in ChEMBL-NTD; conditions: ref ChEMBL-NTD, cited from earlier work
P. falciparum 3D7 [2] = experiment: DAPI stain fluorescent high content imaging assay, P. falciparum 3D7 (confirmatory screen, Avery); conditions: for EC50: 3D7, read-out: EC50_nM; for inhibition of growth at 5 µM: 3D7, read-out: percent_inh @ 5 uM
[3] = original screening data, source (GSK, GNF, StJude), several values separated by ';' in order of sources
[4] = values follow the order of the source (GNF; GSK; StJude)

Row | Structure (SMILES) | EC50 (P. falciparum 3D7 [2]; Plasmodium falciparum) [µM] | inhibition of growth at 5 µM (P. falciparum 3D7 [2]; Plasmodium falciparum) [%] | other results
1 | CCCCNCC(O)(c1ccc(Cl)cc1)c1ccc(Cl)cc1 [MMV665929] | 0.843 | 97 | EC50 (P. falciparum 3D7 [1]; source GNF): 0.72 µM
2 | CCN(Cc1ccccc1)C1CCN(Cc2cc(Br)ccc2O)CC1 [MMV019127] | 0.625 | 97 | EC50 (P. falciparum 3D7 [1]; [3]): 0.823 µM
3 | CCOc1cccc(C(=O)Nc2ccc(-c3nc4ccccc4[nH]3)cc2)c1 [MMV019202] |  |  | EC50 (P. falciparum 3D7 [1]; [3]): 1.01 µM; % inh. At 2.5 uM (P. falciparum 3D7 [2]; 2.5 uM (Comment column; solubility issue at 5 uM)): 97%
4 | FC(F)(F)c1cccc(CNC2CCN(CCc3ccccc3)CC2)c1 [MMV665979] | 0.685 | 96 | EC50 (P. falciparum 3D7 [1]; source GNF): 0.174 µM
5 | CCOc1ccc(Nc2ccnc3cc(Cl)ccc23)cc1 [MMV007285] | 4 |  | EC50 (P. falciparum 3D7 [1]; [4]): 0.956 µM; inhibition of growth at 2 µM (P. falciparum 3D7 [2]; Plasmodium falciparum, 3D7, read-out: percent_inh @ 2 uM): 94%
6 | CCC(=O)Nc1nnc(Cc2ccc(OC)c(OC)c2)s1 [MMV020942] |  | 47 | EC50 (P. falciparum 3D7 [1]; source GSK (TCMDC ids)): 0.91 µM
7 | COc1ccc(C(=O)NC(c2ccc(Cl)cc2Cl)c2cc(Cl)c3cccnc3c2O)cc1 (stereo not drawn) [MMV666054] | 0.513 | 96 | EC50 (P. falciparum 3D7 [1]; source GSK (TCMDC ids)): 0.499 µM
8 | c1ccc(-c2ccc(-c3nc4ccccc4[nH]3)cc2)cc1 [MMV665891] | 1.07 | 52 | EC50 (P. falciparum 3D7 [1]; source GSK): 0.809 µM
9 | O=C(Nc1ccc(Cl)cc1)N1CCN(c2ccc3nncn3n2)CC1 [MMV665917] |  | 62 | EC50 (P. falciparum 3D7 [1]; source GNF): 2.06 µM
10 | O=C(CCl)NCCOc1ccc(Cl)cc1Cl [MMV665927] | 0.555 | 94 | EC50 (P. falciparum 3D7 [1]; [4]): 0.538 µM
11 | CCc1ccc(Nc2cc(C)c3ccc(O)cc3n2)cc1 [MMV000570] | 0.194 | 98 | EC50 (P. falciparum 3D7 [1]; source StJude (SJ id)): 0.733 µM
12 | CCOc1ccc(C=Cc2nc(=O)c3ccccc3o2)cc1 [MMV665940] | 0.56 | 95 | EC50 (P. falciparum 3D7 [1]; source StJude): 0.188 µM
13 | Oc1ccccc1CN1CCC2(CCCN(Cc3ccccc3F)C2)C1 (stereo not drawn) [MMV666116] | 0.548 | 98 | EC50 (P. falciparum 3D7 [1]; [3]): 0.679 µM
14 | CCCCNc1nc(NC(C)(C)C)nc(NC(C)(C)C)n1 [MMV665864] | 0.706 | 98 | EC50 (P. falciparum 3D7 [1]; [4]): 2.16 µM
15 | COc1ccc(CCN2CCC(CN(C)Cc3cnn(-c4ccccc4)c3)CC2)cc1 [MMV666069] | 1.43 | 96 | EC50 (P. falciparum 3D7 [1]; source GSK): 1.16 µM
16 | CCOc1ccc(-c2nonc2NC(=O)c2cccc(C)c2)cc1OCC [MMV665805] | 0.117 | 86 | EC50 (P. falciparum 3D7 [1]; source StJude): 0.0619 µM
17 | COc1ccc(C2Sc3ccccc3N=C3C2=C(O)c2ccccc23)cc1 (stereo not drawn) [MMV000563] | 0.845 | 96 | EC50 (P. falciparum 3D7 [1]; source GNF): 0.238 µM
18 | Oc1ccc(C(=C(Cl)Cl)c2ccc(O)cc2)cc1 [MMV665949] |  | 95 | EC50 (P. falciparum 3D7 [1]; source StJude (SJ ids)): 2.47 µM
19 | CCCC(c1nnnn1C1CCCCC1)N1CCN(C(=O)c2ccco2)CC1 (stereo not drawn) [MMV666093] |  | 82 | EC50 (P. falciparum 3D7 [1]; source GNF): 1.33 µM
20 | Cc1ccc(N2C3c4ccccc4N(S(=O)(=O)c4ccc(C)cc4)C2c2ccccc2N3S(=O)(=O)c2ccc(C)cc2)cc1 [MMV007160] | 0.0248 | 97 | EC50 (P. falciparum 3D7 [1]; source GNF (GNF-Pf id)): 0.72 µM
21 | Cc1ccc(Nc2nc(NCCO)c3ccccc3n2)cc1C [MMV001038] | 0.428 |  | EC50 (P. falciparum 3D7 [1]; source GNF (GNF-Pf id)): 0.175 µM; EC50 (P. falciparum 3D7 [1]; source StJude (SJ id)): 0.843 µM
22 | Oc1ccc(Br)cc1CN1CCN(Cc2cccc(F)c2)CC1 [MMV000356] | 1.03 |  | EC50 (P. falciparum 3D7 [1]; [3]): 1.4 µM
23 | Cc1ccc(-c2cc(C(=O)Nc3ccc(S(=O)(=O)N4CCCCC4)cc3)[nH]n2)c(O)c1 [MMV665906] | 0.535 | 94 | EC50 (P. falciparum 3D7 [1]; source GSK): 1.77 µM
24 | COc1ccc(C(C)=O)cc1N1C(=O)C2C(C1=O)C1(c3ccccc3)C(=O)C2(c2ccccc2)C(c2ccc(C)cc2)=C1c1ccc(C)cc1 (stereo not drawn) [MMV007695] | 0.179 | 96 | EC50 (P. falciparum 3D7 [1]; source GNF (GNF-Pf id)): 2.46 µM
25 | O=C(Nc1ccccc1O)c1ccc(Oc2cccc(C(=O)Nc3ccccc3O)c2)cc1 [MMV665888] |  | 91 | EC50 (P. falciparum 3D7 [1]; source GSK): 0.799 µM
26 | Oc1ccc(Cl)cc1CNc1nc2ccccc2[nH]1 [MMV665850] |  | 95 | EC50 (P. falciparum 3D7 [1]; source GNF): 0.921 µM
27 | COc1ccccc1CNC(=O)CCn1c(=O)[nH]c2ccccc2c1=O [MMV665916] | 0.0726 | 64 | EC50 (P. falciparum 3D7 [1]; source GNF (GNF-Pf id)): 0.537 µM
28 | Cc1cc(Nc2ccc3ccccc3c2)n2ncnc2n1 [MMV011099] | 0.242 |  | EC50 (P. falciparum 3D7 [1]; source GSK (TCMDC id)): 0.173 µM
29 | COc1ccc(CN2CCN(Cc3ccccc3)CC2)c(O)c1 [MMV665944] | 1.08 | 96 | EC50 (P. falciparum 3D7 [1]; source StJude (SJ ids)): 1.09 µM
30 | COc1ccccc1C(=O)ON=C(N)Cc1cccc2ccccc12 [MMV666686] | 0.814 | 97 | EC50 (P. falciparum 3D7 [1]; [4]): 0.352 µM
